The results in this text go back to US11180484B2, “Pyrazole derivatives as plasma kallikrein inhibitors” (KALVISTA PHARMACEUTICALS LIMITED, priority 2016, dated 2021).

pIC50: −log10 of the molar value. Where only a bound is given, the exact number is not on record here.

For series [1], the target named is Human FXIa (Homo sapiens (Human), UniProt P03951). The experiment in a line: Determination of the % inhibition / IC50 for FXIa. The class given is biochemical. The following applies: for pIC50: 25° C., substrate Z-Gly-Pro-Arg-AFC. The method, then:
FXIa inhibitory activity in vitro was determined using standard published methods (see e.g. Johansen et al., Int. J. Tiss. Reac. 1986, 8, 185; Shori et al., Biochem. Pharmacol., 1992, 43, 1209; Sturzebecher et al., Biol. Chem. Hoppe-Seyler, 1992, 373, 1025). […]

Series [2] can be described thus: In vitro permeability, Caco-2 model for oral absorption. The format is in vitro ADME. The note with it: human, apical to basolateral, 50 μM test compound, 37° C. On the procedure:
In vitro permeability was determined using the Caco-2 model for oral absorption. The methodology was adapted from standard published methods (Wang Z, Hop C. E., Leung K. H. and Pang J. (2000) J Mass Spectrom 35(1); 71-76). The Caco-2 monolayers were established in a Biocoat™ HTS fibrillar collagen 24 well multiwell insert system (1.0 μm, PET membrane, Corning 354803) in which 200,000 cells were seeded into each insert and maintained over 3 days before being utilised in the permeability assay. For the assay, 50 μM test compound is added to the apical side of the inserts and incubated for 1 hour at 37° C. on a shaking platform (120 rpm). Apical to basolateral transport was determined by measuring the test article in both compartments by LCMS following the 1 hour incubation. The integrity of the Caco-2 monolayers was confirmed by two methods, (i) comparison of pre- and post-experiment transepithelial electrical resistance (TEER) and, (ii) assessment of Lucifer Yellow flux.

The nature of series [3]: Intrinsic clearance in human liver microsomes. The class given is in vitro ADME. The note with it: human liver microsomes 0.5 mg/mL, 5 μM test compound, 37° C.; read-out: Human liver microsome (Clint μL/min/mg protein). On the procedure: (§1) Rat or human liver microsomes (0.5 mg/mL; Corning) were incubated with 5 μM test compound at 37° C. on a shaking platform (150 rpm). Samples were taken at 0, 6, 12, 18, 24 and 60 min and test compound concentrations were determined by LCMS against a calibration curve.

For series [4], the target named is Human plasma kallikrein (Homo sapiens (Human), UniProt P03952). The experiment in a line: Determination of the IC50 for plasma kallikrein. The class given is biochemical. The following applies: 25° C., substrate H-DPro-Phe-Arg-AFC; read-out: IC50 (human PKal). On the procedure: Human plasma kallikrein (Protogen) was incubated at 25° C. with the fluorogenic substrate H-DPro-Phe-Arg-AFC and various concentrations of the test compound. Residual enzyme activity (initial rate of reaction) was determined by measuring the change in […] at 410 nm and the IC50 value for the test compound was determined.

Series [5] concerns the target Human KLK1 (Homo sapiens (Human), UniProt P06870). The experiment in a line: Determination of the IC50 for KLK1. The following applies: 25° C., substrate H-DVal-Leu-Arg-AFC. The class given is biochemical. The method, then: Human KLK1 (Callbiochem) was incubated at 25° C. with the fluorogenic substrate H-DVal-Leu-Arg-AFC and various concentrations of the test compound. Residual enzyme activity (initial rate of reaction) was determined by measuring the change in […] at 410 nm and the IC50 value for the test compound was determined.

Series [6] can be described thus: Intrinsic clearance in rat liver microsomes. The class given is in vitro ADME. The following applies: rat liver microsomes 0.5 mg/mL, 5 μM test compound, 37° C.; read-out: rat liver microsome (Clint μL/min/mg protein). On the procedure: as §1
On the technique in general: Liver microsomes are vesicles of endoplasmic reticulum, rich in cytochrome P450 enzymes.

Series [7] addresses Human Factor XIIa (Homo sapiens (Human), UniProt P00748). In words: Factor XIIa inhibitory activity in vitro. The format is biochemical. The note with it: 25° C., substrate H-DPro-Phe-Arg-AFC; read-out: IC50 (human FXIIa). On the procedure: Human Factor XIIa (Enzyme Research Laboratories) was incubated at 25° C. with the fluorogenic substrate H-DPro-Phe-Arg-AFC and various concentrations of the test compound. Residual enzyme activity (initial rate of reaction) was determined by measuring the change in […] at 410 nm and the IC50 value for the test compound was determined.

Sequence of Human Factor XIIa (P00748 373-615): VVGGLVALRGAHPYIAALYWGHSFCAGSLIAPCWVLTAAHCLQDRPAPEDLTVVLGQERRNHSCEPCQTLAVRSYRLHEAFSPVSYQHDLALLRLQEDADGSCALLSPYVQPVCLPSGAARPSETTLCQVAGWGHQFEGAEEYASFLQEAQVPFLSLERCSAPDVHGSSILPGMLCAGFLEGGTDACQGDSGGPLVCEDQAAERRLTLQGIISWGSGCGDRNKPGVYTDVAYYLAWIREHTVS
Sequence of Human plasma kallikrein (P03952 391-638): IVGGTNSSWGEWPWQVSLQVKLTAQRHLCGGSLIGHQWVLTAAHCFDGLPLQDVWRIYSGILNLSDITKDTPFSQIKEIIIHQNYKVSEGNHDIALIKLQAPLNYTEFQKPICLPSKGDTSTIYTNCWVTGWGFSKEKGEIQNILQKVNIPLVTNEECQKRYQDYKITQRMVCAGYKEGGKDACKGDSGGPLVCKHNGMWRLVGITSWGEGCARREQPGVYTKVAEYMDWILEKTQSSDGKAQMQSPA
Sequence of Human plasma kallikrein (P03952 20-390): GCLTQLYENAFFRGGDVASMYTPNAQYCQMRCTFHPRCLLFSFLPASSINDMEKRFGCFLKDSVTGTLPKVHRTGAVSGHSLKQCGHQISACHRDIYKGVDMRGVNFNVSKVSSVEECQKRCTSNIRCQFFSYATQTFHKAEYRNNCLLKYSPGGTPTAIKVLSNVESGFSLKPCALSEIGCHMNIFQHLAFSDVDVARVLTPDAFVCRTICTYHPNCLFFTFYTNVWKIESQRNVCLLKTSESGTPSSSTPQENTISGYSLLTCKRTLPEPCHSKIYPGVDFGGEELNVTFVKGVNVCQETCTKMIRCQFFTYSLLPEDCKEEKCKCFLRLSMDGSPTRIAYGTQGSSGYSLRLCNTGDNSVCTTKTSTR
Sequence of Human FXIa (P03951 388-625): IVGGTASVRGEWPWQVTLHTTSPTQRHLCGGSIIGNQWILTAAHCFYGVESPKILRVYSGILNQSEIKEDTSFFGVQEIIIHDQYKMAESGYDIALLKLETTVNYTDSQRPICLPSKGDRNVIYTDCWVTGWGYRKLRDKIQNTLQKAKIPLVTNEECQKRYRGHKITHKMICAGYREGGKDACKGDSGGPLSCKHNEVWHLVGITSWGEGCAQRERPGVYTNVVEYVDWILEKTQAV
Sequence of Human FXIa (P03951 19-387): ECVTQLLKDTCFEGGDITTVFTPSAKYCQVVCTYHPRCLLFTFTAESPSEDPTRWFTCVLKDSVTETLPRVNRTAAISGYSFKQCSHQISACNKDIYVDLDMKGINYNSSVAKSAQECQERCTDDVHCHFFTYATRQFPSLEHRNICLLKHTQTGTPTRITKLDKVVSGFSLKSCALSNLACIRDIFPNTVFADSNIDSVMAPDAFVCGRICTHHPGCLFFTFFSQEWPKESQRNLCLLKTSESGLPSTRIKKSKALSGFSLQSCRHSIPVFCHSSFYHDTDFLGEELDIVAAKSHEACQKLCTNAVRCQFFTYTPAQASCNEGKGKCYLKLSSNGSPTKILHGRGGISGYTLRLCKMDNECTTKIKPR
Sequence of Human KLK1 (P06870 25-262): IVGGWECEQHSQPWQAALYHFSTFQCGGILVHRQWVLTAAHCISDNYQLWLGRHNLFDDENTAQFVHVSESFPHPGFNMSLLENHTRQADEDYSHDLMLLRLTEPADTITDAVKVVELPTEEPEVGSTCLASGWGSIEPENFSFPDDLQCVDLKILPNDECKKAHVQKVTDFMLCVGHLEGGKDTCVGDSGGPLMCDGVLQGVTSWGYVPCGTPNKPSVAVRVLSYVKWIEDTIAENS

For `COCc1nn(Cc2ccc(Cn3cc(C)cn3)cc2)cc1C(=O)NCc1nccc(OC)c1F` [Example 1, N-[(3-fluoro-4-methoxypyridin-2-yl)methyl]-3-(methoxymethyl)-1-({4-[(4-methylpyrazol-1-yl)methyl]phenyl}methyl)pyrazole-4-carboxamide], the pIC50 – broadly, the negative decadic logarithm of the IC50, by convention in mol/L – in series [1] is less than 4.40; in series [4] it was 7.58; in series [5] it was less than 4.40; in series [7] it was less than 4.40. Also, the Papp (commonly a coefficient for how fast a substance crosses the barrier) at 1 h, 50 μM in series [2] is 28 ×10⁻⁶ cm/s. Also, the results for the microsomal CLint at 5 μM in series [3] and in series [6] were 33 µL/min/mg and 52 µL/min/mg, respectively.
In the case of `COc1ccnc(CNC(=O)c2cn(Cc3ccc(Cn4ccccc4=O)cc3)nc2N(C)C)c1F` [Example 7, 3-(dimethylamino)-N-[(3-fluoro-4-methoxypyridin-2-yl)methyl]-1-({4-[(2-oxopyridin-1-yl)methyl]phenyl}methyl)pyrazole-4-carboxamide], the pIC50 is less than 4.40 in series [1], 7.74 in series [4], less than 4.40 in series [5] and less than 4.40 in series [7]. This compound displayed a Papp at 1 h, 50 μM in series [2] of 10 ×10⁻⁶ cm/s. The microsomal CLint at 5 μM in series [3] came to 22 µL/min/mg; in series [6], 8 µL/min/mg.
As for `COCc1nn(Cc2ccc(Cn3ccccc3=O)cc2)cc1C(=O)NCc1c(C(N)=O)ccc(OC)c1F` [Example 42, N-[(6-carbamoyl-2-fluoro-3-methoxyphenyl)methyl]-3-(methoxymethyl)-1-({4-[(2-oxopyridin-1-yl)methyl]phenyl}methyl)pyrazole-4-carboxamide], the pIC50 in series [1] is less than 4.40; in series [4], 8.44; in series [5], less than 5.40; in series [7], less than 5.40. In series [2], this compound yielded a Papp at 1 h, 50 μM of 4 ×10⁻⁶ cm/s. In addition, the microsomal CLint at 5 μM turned out to be 8 µL/min/mg in series [3] and 11 µL/min/mg in series [6].
On to `COc1ccc(C#N)c(CNC(=O)c2cn(Cc3ccc(Cn4ccccc4=O)cc3)nc2N(C)C)c1F` [Example 44, N-[(6-cyano-2-fluoro-3-methoxyphenyl)methyl]-3-(dimethylamino)-1-({4-[(2-oxopyridin-1-yl)methyl]phenyl}methyl)pyrazole-4-carboxamide], for which the inhibition (as a rule, the change of the read-out against control, counted positive when it falls) at 40 µM in series [1] (40 μM test compound, read-out: % Inhibition @ 40 μM (human FXIa)) worked out at 32%. For the same compound, the pIC50 in series [1] is less than 4.40; in series [4], 8.06; in series [5], less than 4.10; in series [7], less than 4.40. This compound also registered a Papp at 1 h, 50 μM in series [2] of 17 ×10⁻⁶ cm/s. Further, the values for the microsomal CLint at 5 μM in series [3] and in series [6] were 162 µL/min/mg and 101 µL/min/mg, respectively.
Regarding `COCc1nn(Cc2ccc(Cn3ccccc3=O)cc2)cc1C(=O)NCc1cc(F)ccc1-n1cnnn1` [Example 49, N-{[5-fluoro-2-(1,2,3,4-tetrazol-1-yl)phenyl]methyl}-3-(methoxymethyl)-1-({4-[(2-oxopyridin-1-yl)methyl]phenyl}methyl)pyrazole-4-carboxamide], the pIC50 was less than 4.40 in series [1], 7.80 in series [4], less than 5.40 in series [5] and less than 5.40 in series [7]. In series [2], this compound showed a Papp at 1 h, 50 μM of 6 ×10⁻⁶ cm/s. The microsomal CLint at 5 μM came out at 18 µL/min/mg in series [3] and 36 µL/min/mg in series [6].
As to `COCc1nn(Cc2ccc(Cn3ccccc3=O)cn2)cc1C(=O)NCc1c(C#N)ccc(OC)c1F` [Example 51, N-[(6-cyano-2-fluoro-3-methoxyphenyl)methyl]-3-(methoxymethyl)-1-({5-[(2-oxopyridin-1-yl)methyl]pyridin-2-yl}methyl)pyrazole-4-carboxamide], the negative-log IC50 (pIC50) in series [1] is less than 4.40; in series [4], 7.67; in series [5] it was less than 5.40; in series [7], less than 5.40. Besides, the Papp at 1 h, 50 μM in series [2] was 3 ×10⁻⁶ cm/s. Moreover, the microsomal CLint at 5 μM was 30 µL/min/mg in series [3] and 25 µL/min/mg in series [6].
With `COCc1nn(Cc2ccc(Cn3ccccc3=O)nc2)cc1C(=O)NCc1c(C#N)ccc(OC)c1F` [Example 52, N-[(6-cyano-2-fluoro-3-methoxyphenyl)methyl]-3-(methoxymethyl)-1-({6-[(2-oxopyridin-1-yl)methyl]pyridin-3-yl}methyl)pyrazole-4-carboxamide], the pIC50 is less than 4.40 in series [1], 8.19 in series [4], less than 5.40 in series [5] and less than 5.40 in series [7]. In series [2], this compound registered a Papp at 1 h, 50 μM of 5 ×10⁻⁶ cm/s. For the same compound, the microsomal CLint at 5 μM in series [3] came out at 16 µL/min/mg; in series [6] it was 8 µL/min/mg.
Regarding `COCc1nn(Cc2cnc(N3CCCC3)nc2)cc1C(=O)NCc1c(C#N)ccc(OC)c1F` [Example 58, N-[(6-cyano-2-fluoro-3-methoxyphenyl)methyl]-3-(methoxymethyl)-1-{[2-(pyrrolidin-1-yl)pyrimidin-5-yl]methyl}pyrazole-4-carboxamide], the pIC50 is 5.07 in series [1], 7.24 in series [4], less than 4.40 in series [5] and less than 4.40 in series [7]. Moreover, the Papp at 1 h, 50 μM in series [2] came out at 26 ×10⁻⁶ cm/s.
With `Nc1nn(Cc2ccc(Cn3ccccc3=O)cc2)cc1C(=O)NCc1cc(Cl)ccc1-n1cnnn1` [Example 71, 3-amino-N-{[5-chloro-2-(1,2,3,4-tetrazol-1-yl)phenyl]methyl}-1-({4-[(2-oxopyridin-1-yl)methyl]phenyl}methyl)pyrazole-4-carboxamide], the negative logarithm of the IC50 (pIC50) in series [1] is 5.34; in series [4], 9.52; in series [5], less than 5.40; in series [7], less than 5.40. For the same compound, the Papp at 1 h, 50 μM in series [2] was 1 ×10⁻⁶ cm/s. Further, the microsomal CLint at 5 μM in series [3] and in series [6] was 17 µL/min/mg each time.
Consider `COCc1nn(Cc2ccc(Cn3ccccc3=O)cc2)cc1C(=O)NCc1c(Cl)cccc1-n1cnnn1` [Example 73, N-{[2-chloro-6-(1,2,3,4-tetrazol-1-yl)phenyl]methyl}-3-(methoxymethyl)-1-({4-[(2-oxopyridin-1-yl)methyl]phenyl}methyl)pyrazole-4-carboxamide], for which the pIC50 was less than 4.40 in series [1], 7.64 in series [4], less than 5.40 in series [5] and less than 5.40 in series [7]. This compound also had an apparent permeability (Papp) at 1 h, 50 μM in series [2] of 4 ×10⁻⁶ cm/s.
For the compound `COCc1nn(Cc2ccc(N3CCC(F)(F)C3)nc2)cc1C(=O)NCc1c(-n2cnnn2)ccc(OC)c1F` [Example 87, 1-{[6-(3,3-difluoropyrrolidin-1-yl)pyridin-3-yl]methyl}-N-{[2-fluoro-3-methoxy-6-(1,2,3,4-tetrazol-1-yl)phenyl]methyl}-3-(methoxymethyl)pyrazole-4-carboxamide], the pIC50 in series [1] was 6.79; in series [4], 9.10; in series [5] it was less than 4.40; in series [7] it was less than 4.40. In addition, in series [2], the Papp at 1 h, 50 μM is 4 ×10⁻⁶ cm/s.
On to `COCc1nn(Cc2ccc(Cn3cccn3)cc2)cc1C(=O)NCc1cccc(Cl)c1` [Reference Example I, reference compound], for which the negative logarithm of the IC50 (pIC50) in series [1] is less than 4.40; in series [4], 5.70; in series [5] it was less than 4.40; in series [7] it was less than 4.40. The compound also came in with an apparent permeability (Papp) at 1 h, 50 μM in series [2] of 15 ×10⁻⁶ cm/s. Besides, the microsomal CLint at 5 μM is 77 µL/min/mg in series [3] and 153 µL/min/mg in series [6].
Consider `COCc1nn(Cc2ccc(Cn3cccn3)cc2)cc1C(=O)NCc1cccc(Cl)c1F` [Reference Example J, reference compound], for which the pIC50 is less than 4.40 in series [1], 5.54 in series [4], less than 4.40 in series [5] and less than 4.40 in series [7]. In series [2], this compound registered a Papp at 1 h, 50 μM of 12 ×10⁻⁶ cm/s. For the same compound, the microsomal CLint at 5 μM in series [3] is 110 µL/min/mg; in series [6], 187 µL/min/mg.
`COc1ccc(-n2cnnn2)c(CNC(=O)c2cnn(Cc3cnc(N4CCCC4)nc3)c2)c1F` [Reference Example K, reference compound]: the pIC50 is 7.12 in series [1], 8.70 in series [4], less than 4.40 in series [5] and less than 4.40 in series [7]. For the same compound, the apparent permeability (Papp) at 1 h, 50 μM in series [2] is 3 ×10⁻⁶ cm/s.
